The text below walks through data of patent publication US4204003A, “N-(2-Aminocyclopentyl)-N-alkanoylanilides as CNS anti-depressants” (The Upjohn Company, priority 1978, dated 1980).

For one series, the system named is oxotremorine hypothermia. The experiment in a line: standard oxotremorine hypothermia antagonism test. It counts as in vivo. The note with it: ip; intraperitoneally.
The next series relates to yohimbine toxicity. The experiment in a line: standard yohimbine toxicity potentiation test. It counts as in vivo. The note with it: ip; intraperitoneally.
Series [1] can be described thus: rat liver microsome incubation system (metabolism). The note with it: from the corresponding N-[2-(dimethylamino)cyclopentyl]propionanilide compound. It counts as in vitro ADME.
For series [2] the following is noted: literature (J. Pharmaceutical Sciences, December 1974); cited from earlier work.
The conditions of series [3]: literature (J. Pharmaceutical Sciences, December 1974); cited from earlier work. This is another data set of the same source.

A word on the ED50: it is the midpoint of the dose-response relation.

`CCC(=O)N(c1ccc(Cl)c(Cl)c1)[C@@H]1CCC[C@H]1NC` (relative stereo) [Trans-3,4-dichloro-N-[2-(N-methylamino)-cyclopentyl]propionanilide]: the ED50 in the series on oxotremorine hypothermia and in the series on yohimbine toxicity was less than 1 mg/kg each time.

As to “2-(N-methylamino)cyclopentylpropionanilide”, in series [1], the “metabolite formed in rat liver microsome incubation” value was “is a metabolite of the corresponding N-[2-(dimethylamino)cyclopentyl]propionanilide compound”.

As to `ON(c1ccccc1)C1CCCCC1N1CCCC1` (stereo not shown) [N-[2-(N-pyrrolidinyl)cyclohexyl]-N-phenylhydroxylamine], the CNS properties entry in series [2] was “do not have useful CNS properties”.

Turning to `CCC(=O)N(c1ccc(Cl)c(Cl)c1)[C@@H]1CCC[C@H]1N` (relative stereo) [Trans-3,4-dichloro-N-(2-aminocyclopentyl)-propionanilide], the ED50 in the series on oxotremorine hypothermia and in the series with yohimbine toxicity was less than 1 mg/kg in each case. For the compound `COc1ccc(C(O)C2CCCCC2N2CCCCC2)cc1` (stereo not shown) [[2-(N-piperidinylcyclohexyl]-(4-methoxyphenyl)methanol], the diuretic activity result in series [3] is reported as “Diuretic activity is alleged”.
